Laboratory results reported in patent publication US9938222B2 (BRISTOL-MYERS SQUIBB COMPANY, priority 2014, dated 2018).

Molecular target: human GPR120 (Homo sapiens (Human), UniProt Q5NUL3)
Experiment: GPR120 pERK AlphaScreen SureFire Assay (human GPR120 pERK assay)
Format: cell-based
Settings: CHO cells stably transfected with short form of human GPR120
Procedure, shortened: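 CHOA12 cells stably expressing short-form human GPR120, serum-starved 2 h, then stimulated 7 min at 37° C with compound (33.33 μM to 0.56 nM, 11-point). Phospho-ERK1/2 read by AlphaScreen SureFire in lysates. Activation scaled between DMSO and 50 μM linolenic acid; EC50 from a 4-parameter logistic fit.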

Chain of human GPR120 (Q5NUL3 whole entry): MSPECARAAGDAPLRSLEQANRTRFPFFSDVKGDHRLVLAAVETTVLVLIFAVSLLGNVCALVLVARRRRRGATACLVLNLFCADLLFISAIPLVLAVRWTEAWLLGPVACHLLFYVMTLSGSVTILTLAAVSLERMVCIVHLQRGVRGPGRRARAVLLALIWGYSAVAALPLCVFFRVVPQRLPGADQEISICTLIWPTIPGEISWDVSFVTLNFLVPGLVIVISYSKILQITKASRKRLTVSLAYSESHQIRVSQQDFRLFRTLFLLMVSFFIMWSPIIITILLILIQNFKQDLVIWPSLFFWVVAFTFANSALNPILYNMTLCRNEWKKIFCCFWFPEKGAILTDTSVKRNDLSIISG

Row | Compound | EC50
1 | O=C(O)[C@@H]1C[C@H]1COc1ccc(-c2cc(Oc3ccccc3)cnc2Cl)cc1 (racemic) [Example 110, Trans-2-((4-(2-chloro-5-phenoxypyridin-3-yl)phenoxy)methyl)cyclopropanecarboxylic acid] | 430 nM
2 | O=C(O)C1CC1COc1ccc(-c2cc(OC3CCCC3)ccc2F)cc1 (racemic) [Example 50, Trans-2-(((5′-cyclopentyloxy)-2′-fluoro-[1,1′-biphenyl]-4-yl)oxy)methyl) cyclopropanecarboxylic acid] | 260 nM
3 | CC(C)Oc1ccc(F)c(-c2ccc(OC[C@@H]3C[C@H]3C(=O)O)c(F)c2)c1 (single isomer, unassigned) [Example 63] | 180 nM
4 | CC(C)Oc1ccc(Cl)c(-c2ccc(CC[C@@H]3C[C@H]3C(=O)O)cc2)c1 (relative stereo) [Example 133, Trans-2-(2-(2′-chloro-5′-isopropoxy-[1,1′-biphenyl]-4-yl)ethyl) cyclopropanecarboxylic acid] | 1860 nM
5 | CC(C)Oc1cccc(-c2ccc(OC[C@@H]3C[C@H]3C(=O)O)cc2)c1 (racemic) [Example 73, Trans-2-(((3′-isopropoxy-[1,1′-biphenyl]-4-yl)oxy)methyl) cyclopropanecarboxylic acid] | 1380 nM
6 | CC(C)Oc1cc(-c2ccc(OC[C@@H]3C[C@H]3C(=O)O)cc2)c(F)c(C(F)(F)F)c1 (racemic) [Example 49, Trans-2-(((2′-fluoro-5′-isopropoxy-3′-(trifluoromethyl)-[1,1′-biphenyl]-4-yl)oxy)methyl)cyclopropanecarboxylic acid] | 1670 nM
7 | CC(C)Oc1ccc(F)c(-c2ccc(OC[C@H]3C[C@H]3C(=O)O)cc2)c1 (single isomer, unassigned) [Example 7] | 2810 nM
8 | CC(C)Oc1cc(Cl)cc(-c2ccc(OC[C@@H]3C[C@H]3C(=O)O)cc2)c1 (racemic) [Example 120, Trans-2-(((3′-chloro-5′-isopropoxy-[1,1′-biphenyl]-4-yl)oxy)methyl) cyclopropanecarboxylic acid] | 620 nM
9 | Cc1ccc(Oc2ccc(F)c(-c3ccc(OCC4C[C@@H]4C(=O)O)cc3)c2)cn1 (stereo partly shown) [Example 116] | 90 nM
10 | O=C(O)[C@@H]1C[C@H]1COc1ccc(-c2cc(OC3CCC3)ccc2F)cc1 (racemic) [Example 94, Trans-2-(((5′-cyclobutoxy-2′-fluoro-[1,1′-biphenyl]-4-yl)oxy)methyl) cyclopropanecarboxylic acid] | 140 nM
11 | CC[C@@H](C)Oc1ccc(F)c(-c2ccc(OCC3CC3C(=O)O)cc2)c1 (stereo partly drawn) [Example 93, Trans-2-(((5′-((R)-sec-butoxy)-2′-fluoro-[1,1′-biphenyl]-4-yl)oxy)methyl) cyclopropanecarboxylic acid] | 300 nM
12 | O=C(O)[C@@H]1C[C@H]1COc1ccc(-c2cc(OCC3CC3)ccc2F)cc1 (racemic) [Example 95, Trans-2-(((5′-(cyclopropylmethoxy)-2′-fluoro-[1,1′-biphenyl]-4-yl)oxy)methyl)cyclopropanecarboxylic acid] | 370 nM
13 | O=C(O)[C@@H]1C[C@H]1COc1ccc(-c2cc(Oc3cccc(F)c3)cc(F)c2F)cc1F (single isomer, unassigned) [Example 106] | 270 nM
14 | CC(C)Oc1cc(Cl)cc(-c2ccc(CC[C@@H]3C[C@H]3C(=O)O)cc2)c1 (relative stereo) [Example 132, Trans-2-(2-(3′-chloro-5′-isopropoxy-[1,1′-biphenyl]-4-yl)ethyl) cyclopropanecarboxylic acid] | 2440 nM
15 | COCCc1cc(-c2cc(OC(C)C)ccc2F)ccc1OC[C@@H]1C[C@H]1C(=O)O (racemic) [Example 89, Trans-2-(((2′-fluoro-5′-isopropoxy-3-(2-methoxyethyl)-[1,1′-biphenyl]-4-yl)oxy)methyl) cyclopropanecarboxylic acid] | 3250 nM
16 | O=C(O)[C@H]1CC1COc1ccc(-c2cc(Oc3cccc(F)c3)cnc2Cl)cc1 (stereo partly shown) [Example 113] | 120 nM

Now from value to compound:

Row | EC50 | Compound
17 | 270 nM | Cc1ccc(Oc2ccc(F)c(-c3ccc(OCC4CC4C(=O)O)c(F)c3)c2)cc1F (single isomer, unassigned) [Example 102, Trans-2-(((2′,3-difluoro-5′-(3-fluoro-4-methylphenoxy)-[1,1′-biphenyl]-4-yl)oxy)methyl)cyclopropanecarboxylic acid]
18 | 500 nM | O=C(O)[C@@H]1C[C@H]1COc1ccc(-c2cc(OC(F)(F)F)ccc2Cl)cc1 (racemic) [Example 54, Trans-2-(((2′-chloro-5′-(trifluoromethoxy)-[1,1′-biphenyl]-4-yl)oxy)methyl)cyclopropanecarboxylic acid]
19 | 310 nM | CC(C)Oc1ccc(F)c(-c2ccc(OC[C@@H]3C[C@H]3C(=O)O)c(F)c2)c1 (racemic) [Example 62, Trans-2-(((2′,3-difluoro-5′-isopropoxy-[1,1′-biphenyl]-4-yl)oxy)methyl) cyclopropanecarboxylic acid]
20 | 130 nM | Cc1ccc(Oc2ccc(F)c(-c3ccc(OCC4CC4C(=O)O)c(F)c3)c2)cc1F (single isomer, unassigned) [Example 101, Trans-2-(((2′,3-difluoro-5′-(3-fluoro-4-methylphenoxy)-[1,1′-biphenyl]-4-yl)oxy)methyl)cyclopropanecarboxylic acid]
21 | 640 nM | CC(C)Oc1cc(Cl)cc(-c2ccc(OC[C@@H]3C[C@H]3C(=O)O)c(F)c2)c1 (single isomer, unassigned) [Example 13]
22 | 1140 nM | COc1cc(-c2cc(Oc3cccc(F)c3)ccc2F)ccc1OC[C@@H]1C[C@H]1C(=O)O (relative stereo) [Example 99, Trans-2-(((2′-fluoro-5′-(3-fluorophenoxy)-3-methoxy-[1,1′-biphenyl]-4-yl)oxy)methyl) cyclopropanecarboxylic acid]
23 | 2020 nM | CC(C)Oc1ccc(F)c(-c2ccc(CC[C@]3(F)C[C@H]3C(=O)O)cc2)c1 (racemic) [Example 39, Cis-2-fluoro-2-(2-(2′-fluoro-5′-isopropoxy-[1,1′-biphenyl]-4-yl)ethyl) cyclopropanecarboxylic acid]
24 | 4310 nM | Cc1nn(Cc2ccccc2)cc1-c1ccc(OC[C@@H]2C[C@H]2C(=O)O)cc1 (racemic) [Example 84, Trans-2-((4-(1-benzyl-3-methyl-1H-pyrazol-4-yl)phenoxy)methyl) cyclopropanecarboxylic acid]
25 | 80 nM | O=C(O)[C@H]1C[C@@H]1COc1ccc(-c2cc(Oc3ccccc3)ccc2F)cc1F (racemic) [Example 9, (Trans)-(+/−)-2-(((2′,3-difluoro-5′-phenoxy-[1,1′-biphenyl]-4-yl)oxy)methyl) cyclopropanecarboxylic acid]
26 | 990 nM | CC(C)Oc1ccc(F)c(-c2ccc(CC[C@H]3C[C@@H]3C(=O)O)cc2)c1 (single isomer, unassigned) [Example 32]
27 | 180 nM | O=C(O)[C@@H]1C[C@H]1COc1ccc(-c2cc(Oc3cccc(F)c3)ccc2F)cc1 (racemic) [Example 42, Trans-2-(((2′-fluoro-5′-(3-fluorophenoxy)-[1,1′-biphenyl]-4-yl)oxy)methyl)cyclopropanecarboxylic acid]
28 | 190 nM | O=C(O)[C@@H]1C[C@H]1COc1ccc(-c2cc(Oc3cccc(F)c3)cnc2Cl)cc1 (racemic) [Example 111, Trans-2-((4-(2-chloro-5-(3-fluorophenoxy)pyridin-3-yl)phenoxy)methyl) cyclopropanecarboxylic acid]
